# Where two headings read alike, the source gives them in different places.
# Target: T1, Human GPR120 (Homo sapiens, UniProt Q5NUL3)
# T1 construct: Ga16 (promiscuous G protein) fusion partner; expressed in transfected cells
# T1 sequence (Q5NUL3 with tags, fused parts or gaps): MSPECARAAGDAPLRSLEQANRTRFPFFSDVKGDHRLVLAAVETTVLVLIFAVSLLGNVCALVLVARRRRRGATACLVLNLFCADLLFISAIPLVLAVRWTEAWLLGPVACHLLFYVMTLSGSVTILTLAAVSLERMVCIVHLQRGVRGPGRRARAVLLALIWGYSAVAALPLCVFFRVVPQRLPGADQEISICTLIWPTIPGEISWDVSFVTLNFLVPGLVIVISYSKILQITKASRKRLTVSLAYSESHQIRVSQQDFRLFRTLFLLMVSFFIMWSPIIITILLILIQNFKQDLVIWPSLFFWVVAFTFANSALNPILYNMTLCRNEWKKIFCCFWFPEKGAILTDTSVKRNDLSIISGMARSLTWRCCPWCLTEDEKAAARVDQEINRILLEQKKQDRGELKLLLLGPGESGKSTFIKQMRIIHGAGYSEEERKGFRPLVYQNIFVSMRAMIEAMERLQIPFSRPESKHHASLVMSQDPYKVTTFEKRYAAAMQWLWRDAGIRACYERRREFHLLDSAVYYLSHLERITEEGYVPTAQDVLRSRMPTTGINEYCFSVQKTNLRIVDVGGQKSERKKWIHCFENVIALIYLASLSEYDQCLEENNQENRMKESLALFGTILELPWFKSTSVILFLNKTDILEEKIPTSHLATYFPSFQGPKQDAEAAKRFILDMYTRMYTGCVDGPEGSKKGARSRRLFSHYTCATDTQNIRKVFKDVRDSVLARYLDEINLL
# Assay: FLIPR assay: agonist-induced calcium mobilization in HEK293-GPR120-Ga16 cells
# Assay type: cell-based
# Details: for EC50: GPR120 activation, calcium mobilization, HEK293-GPR120-Ga16 cells; for Emax: % enhancement of the test compound relative to a known compound, read-out: % Efficiency
# Method: Human GPR120 stable cell-line was generated in HEK293 cells. GPR120 (Accession number BC101175) is fused to a promiscuous G protein, Ga16. The expression plasmid is transfected into HEK293 cells using Fugene6 following manufacturer's instruction. Stable cell-lines are generated following drug selection.
# FLIPR (Fluorimetric Imaging Plate Reader, Molecular Devices) assays are performed to measure agonist-induced calcium mobilization in the GPR120-expressing cells. One day before the FLIPR assay, HEK293-GPR120-Ga16 cells are seeded into poly-D-lysine coated black-wall-clear bottom 384 well plates (Falcon) at 25,000 cells per well in 40 μl DMEM supplemented with 1% of FBS. The cells are incubated overnight at 37° C. in a humidified incubator. The medium is aspirated on the day of the FLIPR assay. The cells are incubated with 50 μl/well of the assay buffer (HBSS, 20 mM HEPES, 2.5 mM probenecid, pH7.4) containing Fluo-4 NM dye (Invitrogen cat# F36205) at 37° C. for 45 minutes, and then equilibrated at room temperature for 30 minutes. Compounds are dissolved in DMSO and diluted to desired concentrations with assay buffer. Fluorescent output is measured immediately following compound addition (12.5 μl/well) on the FLIPR machine.
# An EC50 value was calculated using the change of fluorescent intensity from the reaction initiation. […] In some examples, compounds provided herein have EC50 values from 0.1 μM to 5 μM, while in other examples from 0.5 μM to 5 μM.
# The EC50 value in those experiments is given as that concentration of the test compound in question that provoke a response halfway between the baseline and maximum responses. In certain examples compounds of Formula (I) have EC50 values from 0.001 μM to 5 μM. In other examples, compounds of Formula (I) have EC50 values from 0.001 μM to 4 μM. In other examples, compounds of Formula (I) have EC50 values from 0.001 μM to 3 μM. In other examples, compounds of Formula (I) have EC50 values from 0.001 μM to 2 μM. In other examples, compounds of Formula (I) have EC50 values from 0.001 μM to 1 μM. In other examples, compounds of Formula (I) have EC50 values from 0.001 μM to 0.5 μM. […] In other examples, compounds of Formula (I) have EC50 values from 0.001 μM to 0.1 μM.
# The % efficiency in those experiments is given as that % enhancement of the test compound in question relative to a known compound. In certain examples compounds of Formula (I) have a % efficiency values from 50% to 150%. In other examples, compounds of Formula (I) have a % efficiency values from 55% to 150%. In other examples, compounds of Formula (I) have a % efficiency values from 60% to 150%. In other examples, compounds of Formula (I) have a % efficiency values from 65% to 150%. In other examples, compounds of Formula (I) have a % efficiency values from 70% to 150%. In other examples, compounds of Formula (I) have a % efficiency values from 75% to 150%. In other examples, compounds of Formula (I) have a % efficiency values from 80% to 150%. In other examples, compounds of Formula (I) have a % efficiency values from 85% to 150%. In other examples, compounds of Formula (I) have a % efficiency values from 90% to 150%. In other examples, compounds of Formula (I) have a % efficiency values from 95% to 150%. In other examples, compounds of Formula (I) have a % efficiency values from 100% to 150%.
Compound,EC50 (read-out: EC50 Range),Emax,EC50 (read-out: EC50)
"CCn1c(-c2cccc(C#N)c2)cs/c1=N\c1ccc(S(=O)(=O)O)cc1 [Compound 1, (Z)-4-(4-(3-cyanophenyl)-3-ethylthiazol-2(3H)-ylideneamino)benzenesulfonic acid]",500 to 1000 nM,,
CCn1c(-c2cc(C(F)(F)F)cc(C(F)(F)F)c2)cs/c1=N\c1ccc(S(=O)(=O)O)cc1 [Compound 2],250 to 500 nM,102%,396 nM
"CCn1c(-c2ccccc2)c(C)s/c1=N\c1ccc(S(=O)(=O)O)cc1 [Compound 3, (Z)-4-(3-ethyl-5-methyl-4-phenylthiazol-2(3H)-ylideneamino)benzenesulfonic acid]",500 to 1000 nM,85.6%,547 nM
"CCn1c(-c2ccccc2OC(F)(F)F)cs/c1=N\c1ccc(S(=O)(=O)O)cc1 [Compound 6, (Z)-4-(3-ethyl-4-(2-(trifluoromethoxy)phenyl)thiazol-2(3H)-ylideneamino)benzenesulfonic acid]",500 to 1000 nM,123%,541 nM
"CCn1c(-c2cc(Cl)ccc2Cl)cs/c1=N\c1ccc(S(=O)(=O)O)cc1 [Compound 7, (Z)-4-(4-(2,5-dichlorophenyl)-3-ethylthiazol-2(3H)-ylideneamino)benzenesulfonic acid]",100 to 250 nM,124%,109 nM
"CCn1c(-c2ccccc2Oc2ccccc2)cs/c1=N\c1ccc(C(=O)O)cc1 [Compound 8, (Z)-4-(3-ethyl-4-(2-phenoxyphenyl)thiazol-2(3H)-ylideneamino)benzoic acid]",500 to 1000 nM,88.1%,780 nM
"CCn1c(-c2ccccc2OC(F)(F)F)cs/c1=N\c1ccc(C(=O)O)cc1 [Compound 12, (Z)-4-(3-ethyl-4-(2-(trifluoromethoxy)phenyl)thiazol-2(3H)-ylideneamino)benzoic acid]",250 to 500 nM,,
"CCn1c(-c2cccc(OC(F)(F)F)c2)cs/c1=N\c1ccc(C(=O)O)cc1 [Compound 13, (Z)-4-(3-ethyl-4-(3-(trifluoromethoxy)phenyl)thiazol-2(3H)-ylideneamino)benzoic acid]",500 to 1000 nM,,
"CCn1c(-c2cc(O)ccc2Br)cs/c1=N\c1ccc(C(=O)O)cc1 [Compound 19, (Z)-4-(4-(2-bromo-5-hydroxyphenyl)-3-ethylthiazol-2(3H)-ylideneamino)benzoic acid]",500 to 1000 nM,81.1%,628 nM
"CCn1c(-c2cccc(OCCOC)c2)cs/c1=N\c1ccc(C(=O)O)cc1 [Compound 20, (Z)-4-(3-ethyl-4-(3-(2-methoxyethoxy)phenyl)thiazol-2(3H)-ylideneamino)benzoic acid]",100 to 250 nM,77.1%,119 nM
"CCn1c(-c2ccccc2)cs/c1=N\c1c(F)c(F)c(C(=O)O)c(F)c1F [Compound 25, (Z)-4-(3-ethyl-4-phenylthiazol-2(3H)-ylideneamino)-2,3,5,6-tetrafluorobenzoic acid]",250 to 500 nM,,

# Other lines, results leading:
EC50 (read-out: EC50 Range),Emax,EC50 (read-out: EC50),Compound
250 to 500 nM,,,"CCn1c(-c2cccc(F)c2)cs/c1=N\c1ccc(S(=O)(=O)O)cc1 [Compound 4, (Z)-4-(3-ethyl-4-(3-fluorophenyl)thiazol-2(3H)-ylideneamino)benzenesulfonic acid]"
100 to 250 nM,,,"CCn1c(-c2cccc(Br)c2)cs/c1=N\c1ccc(S(=O)(=O)O)cc1 [Compound 5, (Z)-4-(4-(3-bromophenyl)-3-ethylthiazol-2(3H)-ylideneamino)benzenesulfonic acid]"
100 to 250 nM,98.4%,207 nM,"CCn1c(-c2ccccc2)cs/c1=N\c1ccc(-c2nn[nH]n2)cc1 [Compound 9, (Z)-N-(3-ethyl-4-phenylthiazol-2(3H)-ylidene)-4-(2H-tetrazol-5-yl)aniline]"
250 to 500 nM,86.2%,485 nM,"CCn1c(-c2ccccc2)cs/c1=N\c1ccc(C(=O)O)c(F)c1F [Compound 10, (Z)-4-(3-ethyl-4-phenylthiazol-2(3H)-ylideneamino)-2,3-difluorobenzoic acid]"
100 to 250 nM,,,"CCn1c(-c2ccccc2C(F)(F)F)cs/c1=N\c1ccc(C(=O)O)cc1 [Compound 11, (Z)-4-(3-ethyl-4-(2-(trifluoromethyl)phenyl)thiazol-2(3H)-ylideneamino)benzoic acid]"
100 to 250 nM,,,"CCn1c(-c2ccccc2)cs/c1=N\c1ccc(C(=O)O)c(F)c1 [Compound 14, (Z)-4-(3-ethyl-4-phenylthiazol-2(3H)-ylideneamino)-2-fluorobenzoic acid]"
100 to 250 nM,,,"CCn1c(-c2ccccc2)cs/c1=N\c1ccc(C(=O)O)c(Br)c1 [Compound 15, (Z)-2-bromo-4-(3-ethyl-4-phenylthiazol-2(3H)-ylideneamino)benzoic acid]"
250 to 500 nM,96.9%,479 nM,"CCCn1c(-c2ccccc2)cs/c1=N\c1ccc(C(=O)O)cc1 [Compound 16, (Z)-4-(4-phenyl-3-propylthiazol-2(3H)-ylideneamino)benzoic acid]"
100 to 250 nM,,,"CC(C)n1c(-c2ccccc2)cs/c1=N\c1ccc(C(=O)O)cc1 [Compound 17, (Z)-4-(3-isopropyl-4-phenylthiazol-2(3H)-ylideneamino)benzoic acid]"
250 to 500 nM,,,"CCn1c(-c2cccc(O)c2)cs/c1=N\c1ccc(C(=O)O)cc1 [Compound 18, (Z)-4-(3-ethyl-4-(3-hydroxyphenyl)thiazol-2(3H)-ylideneamino)benzoic acid]"
250 to 500 nM,84.7%,446 nM,"O=C(O)c1ccc(/N=c2\scc(-c3ccccc3)n2CC2CC2)cc1 [Compound 21, (Z)-4-(3-(cyclopropylmethyl)-4-phenylthiazol-2(3H)-ylideneamino)benzoic acid]"
500 to 1000 nM,,,"CCC(C)n1c(-c2ccccc2)cs/c1=N\c1ccc(C(=O)O)cc1 (stereo not shown) [Compound 22, (Z)-4-(3-sec-butyl-4-phenylthiazol-2(3H)-ylideneamino)benzoic acid]"
100 to 250 nM,,,"O=C(O)c1ccc(/N=c2\scc(-c3ccccc3)n2CC(F)F)cc1 [Compound 23, (Z)-4-(3-(2,2-difluoroethyl)-4-phenylthiazol-2(3H)-ylideneamino)benzoic acid]"
100 to 250 nM,71.2%,184 nM,"O=C(O)c1ccc(/N=c2\scc(-c3ccccc3)n2CC(F)(F)F)cc1 [Compound 24, (Z)-4-(4-phenyl-3-(2,2,2-trifluoroethyl)thiazol-2(3H)-ylideneamino)benzoic acid]"

# Reference: US8362050B2, “Compounds and methods for modulating G protein-coupled receptors” (IRM LLC, priority 2008, dated 2013)
